According to ChEMBL document CHEMBL1201862, “PubChem BioAssay data set” (2004):
Active and inactive are the calls of the source.

Tests used:
[1] = molecular target: T1, Short transient receptor potential channel 4 (Mus musculus, UniProt Q9QUQ5); test: block of DAMGO-driven TRPC4 calcium entry – cell-based, HEK293 TRPC4/mu-opioid, Fluo-4 calcium, dose response (AID 434942); assay type: functional;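 note: potency of inhibitors blocking the TRPC4 calcium response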
T1 sequence (Q9QUQ5 whole entry): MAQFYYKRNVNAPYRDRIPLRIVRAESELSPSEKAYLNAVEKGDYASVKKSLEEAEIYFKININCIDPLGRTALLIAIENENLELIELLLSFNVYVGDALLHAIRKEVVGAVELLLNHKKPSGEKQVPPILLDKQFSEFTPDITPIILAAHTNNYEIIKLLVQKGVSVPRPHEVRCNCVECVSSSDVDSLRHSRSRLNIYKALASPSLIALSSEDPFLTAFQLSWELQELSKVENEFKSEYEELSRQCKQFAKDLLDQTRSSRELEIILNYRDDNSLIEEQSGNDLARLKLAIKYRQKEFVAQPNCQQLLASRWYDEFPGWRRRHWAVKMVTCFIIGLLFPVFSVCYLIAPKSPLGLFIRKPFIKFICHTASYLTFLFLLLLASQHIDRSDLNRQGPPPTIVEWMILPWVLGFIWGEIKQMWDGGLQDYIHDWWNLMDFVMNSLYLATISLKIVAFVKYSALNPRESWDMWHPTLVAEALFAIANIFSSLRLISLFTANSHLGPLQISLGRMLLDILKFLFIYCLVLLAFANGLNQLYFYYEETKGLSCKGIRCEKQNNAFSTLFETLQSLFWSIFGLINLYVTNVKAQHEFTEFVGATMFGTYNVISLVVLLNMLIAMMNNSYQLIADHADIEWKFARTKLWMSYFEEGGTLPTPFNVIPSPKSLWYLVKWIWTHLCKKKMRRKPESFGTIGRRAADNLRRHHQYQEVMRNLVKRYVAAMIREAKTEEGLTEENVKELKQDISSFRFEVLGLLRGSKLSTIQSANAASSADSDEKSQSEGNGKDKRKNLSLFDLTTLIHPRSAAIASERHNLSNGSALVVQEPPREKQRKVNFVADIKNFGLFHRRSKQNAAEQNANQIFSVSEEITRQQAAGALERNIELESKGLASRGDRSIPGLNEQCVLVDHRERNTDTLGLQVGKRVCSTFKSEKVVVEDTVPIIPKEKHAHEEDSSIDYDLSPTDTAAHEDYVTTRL

[2] = A cytotoxicity screen of small molecule inhibitors of the PhoP region in Salmonella typhi identified in the primary screen. [Related pubchem assays: 1850, 1864, 1985 ]; assay type: functional
[3] = microbe, parasite or virus in culture; assay type: functional; conditions: Mycobacterium tuberculosis
Leucine aminopeptidase = molecular target: T2, Leucine aminopeptidase (Plasmodium falciparum 3D7, UniProt Q8IL11); test: P. falciparum M17LAP inhibitors, primary screen, biochemical, fluorogenic H-Leu-NHMec substrate, 1536-well (AID 1619); assay type: functional
T2 sequence (Q8IL11 whole entry): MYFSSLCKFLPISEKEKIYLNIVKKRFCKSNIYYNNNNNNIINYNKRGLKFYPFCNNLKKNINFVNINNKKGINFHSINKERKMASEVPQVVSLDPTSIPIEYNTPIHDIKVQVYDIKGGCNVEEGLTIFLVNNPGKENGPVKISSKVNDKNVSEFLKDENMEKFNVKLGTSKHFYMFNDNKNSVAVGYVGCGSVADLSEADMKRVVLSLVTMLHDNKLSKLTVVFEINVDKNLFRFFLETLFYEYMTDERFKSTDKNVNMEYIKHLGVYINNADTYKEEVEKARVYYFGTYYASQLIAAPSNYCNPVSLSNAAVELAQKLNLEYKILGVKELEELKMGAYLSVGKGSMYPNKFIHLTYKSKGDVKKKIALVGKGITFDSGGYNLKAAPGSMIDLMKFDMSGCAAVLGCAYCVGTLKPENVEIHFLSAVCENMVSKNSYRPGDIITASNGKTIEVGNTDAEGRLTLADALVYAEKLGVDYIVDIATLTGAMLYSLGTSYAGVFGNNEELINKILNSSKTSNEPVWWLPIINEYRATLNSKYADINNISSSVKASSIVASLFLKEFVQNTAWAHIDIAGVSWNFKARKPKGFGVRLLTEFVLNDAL

[4] = viability of uninfected HEp-2 cells – cell-based, HTS, cytotoxicity control for RSV inhibitor project, dose response (AID 2410); assay type: functional; conditions: human respiratory syncytial virus
[5] = molecular target: T3, Sentrin-specific protease 7 (Homo sapiens, UniProt Q9BQF6); assay type: functional;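 note: Luminescence-based dose-response confirmation of ultra-high-throughput screening hits, measuring inhibition of SENP7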
T3 sequence (Q9BQF6 whole entry): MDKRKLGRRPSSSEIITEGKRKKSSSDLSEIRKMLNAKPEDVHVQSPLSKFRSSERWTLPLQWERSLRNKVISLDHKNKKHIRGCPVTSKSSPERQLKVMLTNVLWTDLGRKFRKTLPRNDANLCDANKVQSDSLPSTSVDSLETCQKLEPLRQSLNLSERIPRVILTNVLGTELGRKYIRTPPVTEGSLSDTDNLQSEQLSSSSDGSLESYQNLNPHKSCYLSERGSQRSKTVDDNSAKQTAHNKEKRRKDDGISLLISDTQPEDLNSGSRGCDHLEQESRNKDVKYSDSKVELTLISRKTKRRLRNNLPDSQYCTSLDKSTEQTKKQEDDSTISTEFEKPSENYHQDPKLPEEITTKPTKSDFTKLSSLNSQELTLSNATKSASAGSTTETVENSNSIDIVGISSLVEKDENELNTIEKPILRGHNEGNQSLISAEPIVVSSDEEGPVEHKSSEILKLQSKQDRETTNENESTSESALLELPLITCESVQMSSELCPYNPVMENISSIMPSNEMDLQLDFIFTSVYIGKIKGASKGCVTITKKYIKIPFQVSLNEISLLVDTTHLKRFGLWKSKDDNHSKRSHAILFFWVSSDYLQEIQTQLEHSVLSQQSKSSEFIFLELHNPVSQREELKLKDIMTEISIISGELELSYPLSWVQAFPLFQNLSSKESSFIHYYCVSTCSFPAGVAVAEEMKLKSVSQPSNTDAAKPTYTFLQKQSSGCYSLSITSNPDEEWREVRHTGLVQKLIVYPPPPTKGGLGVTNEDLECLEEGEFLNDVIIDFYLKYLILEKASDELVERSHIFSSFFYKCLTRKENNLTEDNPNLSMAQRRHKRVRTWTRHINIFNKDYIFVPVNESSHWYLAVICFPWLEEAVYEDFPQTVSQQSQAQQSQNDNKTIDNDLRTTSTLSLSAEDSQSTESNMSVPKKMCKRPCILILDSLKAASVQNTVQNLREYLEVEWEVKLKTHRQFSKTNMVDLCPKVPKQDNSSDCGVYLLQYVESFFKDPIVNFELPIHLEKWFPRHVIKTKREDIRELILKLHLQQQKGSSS

[6] = molecular target: T4, Sentrin-specific protease 6 (Homo sapiens, UniProt Q9GZR1); assay type: functional;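 note: Luminescence-based dose-response confirmatory assay of SENP6 inhibition, following up an ultra-high-throughput screen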
T4 sequence (Q9GZR1 whole entry): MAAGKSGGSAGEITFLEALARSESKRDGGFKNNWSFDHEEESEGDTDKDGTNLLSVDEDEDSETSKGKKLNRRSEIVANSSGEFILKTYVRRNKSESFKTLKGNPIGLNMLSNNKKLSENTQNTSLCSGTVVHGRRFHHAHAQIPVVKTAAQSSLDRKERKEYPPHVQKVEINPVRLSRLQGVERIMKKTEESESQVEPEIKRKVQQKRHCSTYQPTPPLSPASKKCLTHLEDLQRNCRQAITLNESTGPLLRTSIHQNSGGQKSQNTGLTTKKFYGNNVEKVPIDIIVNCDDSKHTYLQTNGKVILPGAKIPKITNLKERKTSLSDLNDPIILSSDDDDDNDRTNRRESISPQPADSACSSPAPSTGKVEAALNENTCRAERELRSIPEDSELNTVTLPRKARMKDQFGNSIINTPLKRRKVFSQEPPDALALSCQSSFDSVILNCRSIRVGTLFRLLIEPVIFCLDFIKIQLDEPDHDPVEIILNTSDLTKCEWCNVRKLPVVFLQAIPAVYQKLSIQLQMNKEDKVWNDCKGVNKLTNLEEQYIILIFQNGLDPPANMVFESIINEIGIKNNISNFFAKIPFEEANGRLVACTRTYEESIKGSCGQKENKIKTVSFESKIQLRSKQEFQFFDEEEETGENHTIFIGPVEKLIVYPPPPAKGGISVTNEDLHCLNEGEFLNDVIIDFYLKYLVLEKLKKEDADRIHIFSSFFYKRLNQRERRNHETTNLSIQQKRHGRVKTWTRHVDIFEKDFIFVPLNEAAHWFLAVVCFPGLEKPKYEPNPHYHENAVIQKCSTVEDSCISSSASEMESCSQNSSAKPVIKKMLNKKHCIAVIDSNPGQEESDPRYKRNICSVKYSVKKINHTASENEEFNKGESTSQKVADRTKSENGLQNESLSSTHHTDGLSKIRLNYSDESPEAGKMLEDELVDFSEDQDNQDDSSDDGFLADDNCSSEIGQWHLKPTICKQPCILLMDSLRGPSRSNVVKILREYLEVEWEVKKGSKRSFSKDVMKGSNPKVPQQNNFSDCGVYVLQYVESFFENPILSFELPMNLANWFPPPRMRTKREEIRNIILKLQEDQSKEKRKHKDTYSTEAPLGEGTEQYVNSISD

[7] = molecular target: T5, Sentrin-specific protease 8 (Homo sapiens, UniProt Q96LD8); assay type: functional;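 note: luminescence read-out of SENP8 inhibition, dose-response confirmation following an ultra-high-throughput screen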
T5 sequence (Q96LD8 whole entry): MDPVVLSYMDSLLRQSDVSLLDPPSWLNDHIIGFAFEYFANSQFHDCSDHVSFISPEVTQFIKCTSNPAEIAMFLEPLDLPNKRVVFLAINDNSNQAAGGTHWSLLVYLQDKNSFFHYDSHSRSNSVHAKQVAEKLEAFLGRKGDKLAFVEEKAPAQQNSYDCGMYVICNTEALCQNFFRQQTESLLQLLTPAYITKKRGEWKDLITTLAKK

Caspase-3 = molecular target: T6, Caspase-3 (Homo sapiens, UniProt P42574); assay type: functional;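 note: Dose-response selectivity test against caspase-3 for candidate inhibitors of sentrin-specific proteases (SENPs)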
T6 sequence (P42574 whole entry): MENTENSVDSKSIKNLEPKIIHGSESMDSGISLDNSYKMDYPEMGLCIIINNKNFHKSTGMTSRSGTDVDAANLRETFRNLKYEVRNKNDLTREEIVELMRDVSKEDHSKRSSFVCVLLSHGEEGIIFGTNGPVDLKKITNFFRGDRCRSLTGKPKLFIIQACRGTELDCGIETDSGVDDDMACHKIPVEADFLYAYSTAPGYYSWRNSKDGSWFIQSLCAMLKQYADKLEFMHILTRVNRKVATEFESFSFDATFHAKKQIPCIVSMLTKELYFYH

Nonstructural protein 1 = Nonstructural protein 1 (Influenza A virus, UniProt Q194T2); assay type: functional, Influenza A virus (A/California/07/2009(H1N1))
Nonstructural protein 1, sequence (Q194T2 whole entry): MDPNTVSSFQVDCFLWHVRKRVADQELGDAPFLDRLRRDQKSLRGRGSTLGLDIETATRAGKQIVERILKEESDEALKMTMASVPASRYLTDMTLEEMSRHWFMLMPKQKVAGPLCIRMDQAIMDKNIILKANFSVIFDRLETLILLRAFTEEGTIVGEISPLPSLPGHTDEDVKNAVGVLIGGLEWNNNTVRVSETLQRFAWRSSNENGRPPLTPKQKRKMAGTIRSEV

O=C(c1ccc(Cl)c(Cl)c1)N(Cc1ccco1)c1ccc(O)cc1
EC50 [1]: 8.41 µM (active)

COc1ccc(Cn2nnnc2C(c2cc3ccc(OC)cc3nc2O)N2CCC(C)CC2)cc1 (stereo not given)
EC50 [2]: > 50 µM (active)

Cc1ccc(-c2nc3c(c(=O)c4ccccc4n3C)c(=O)n2Cc2ccco2)cc1
CC50 [3]: 38.3 µM (active) | IC50 (cells): 5.74 µM (active)

O=C(O)Cn1cc(/C=C2/NC(=O)N(c3ccc(Cl)cc3)C2=O)c2ccccc21
IC50 (Leucine aminopeptidase): 11.9 µM (active)

O=S(=O)(Nc1cccc2nsnc12)c1ccccc1
IC50 (Leucine aminopeptidase): 15.5 µM (active)

OCC1(CCc2ccccc2)CCN(Cc2cc(Cl)ccc2O)CC1
EC50 [1]: 9.44 µM (active)

Fc1ccc(CN2CCC(Cc3ccccc3)CC2)cc1F
EC50 [1]: 4.73 µM (active)

CC(C)(C)c1cc(NC(=O)c2cc(F)c(F)c(F)c2F)no1
IC50 (cells): 41.2 µM (active)

O=C(CSc1nc[nH]n1)Nc1ncc(C(F)(F)F)cc1Cl
IC50 (Leucine aminopeptidase): 19.6 µM (active)

Cc1cc(C)nc(N=C(N)NC2CCCCC2)n1
EC50 [1]: 4.22 µM (active)

Cc1ccccc1-n1c(C)nnc1SCc1cc(=O)oc2ccc3ccccc3c12
CC50 [4]: > 50 µM (active) | IC50 (cells): > 50 µM (active)

COC(=O)c1cc(NC(=O)C2CC=CCC2C(=O)O)cc(C(=O)OC)c1 (stereo not given)
IC50 (Leucine aminopeptidase): 28.6 µM (active)

N#Cc1nc(COc2ccc(Br)cc2)oc1NCCCn1ccnc1
EC50 [2]: > 50 µM (active)

CN(C)C(=O)COC(=O)c1ccccc1Nc1ccc(SC(F)F)cc1
CC50 [4]: 8.89 µM (active) | IC50 [5]: 4.9 µM (active) | IC50 [6]: 12.8 µM (active) | IC50 (cells): 4.77 µM (active) | IC50 [7]: 17.8 µM (active) | IC50 (Caspase-3): 28.2 µM (active)

CSC1=NC2(C)CCCCC2C12C=CC(=O)C=C2 (stereo not given)
EC50 [2]: > 50 µM (active)

O=C1NCCCC1C(=O)N/N=C/c1cc([N+](=O)[O-])ccc1O (stereo not given)
EC50 [2]: > 50 µM (active) | IC50 (Nonstructural protein 1): 16.8 µM (active)

Cc1cc(Cl)ccc1OCC(=O)N/N=C/c1ccncc1
EC50 [2]: > 50 µM (active)
